The values below are quoted from earlier work in patent US12133911B2, “Formulations to achieve rapid dissolution of drug from spray-dried dispersions in capsules” (Capsugel Belgium NV, priority 2015, dated 2024).

The conditions of the data set: molality (moles of solute per unit mass) of a saturated solution in water.
Take `OC[C@@H](O)[C@@H](O)[C@H](O)[C@@H](O)CO` [sorbitol]: the “Water Solub.” value is reported as 4.56 mol/kg.

As to `O=C(CO)[C@@H](O)[C@H](O)[C@H](O)CO` [fructose], the “Water Solub.” value is 3.89 mol/kg.

Turning to `[Cl-].[K+]` [KCl, potassium chloride], the “Water Solub.” value is 9.40 mol/kg.

With `OC[C@@H](O)[C@@H](O)[C@H](O)[C@H](O)CO` [mannitol], the “Water Solub.” value is reported as 0.99 mol/kg.

For the compound `OC[C@@H](O)[C@H](O)[C@@H](O)CO` [xylitol], the “Water Solub.” value is listed as 4.11 mol/kg.
